Measurements reported in patent US10774064B2 (Cadent Therapeutics, Inc., priority 2016, dated 2020).

Biological target: T1, small-conductance Ca2+-activated K+ channels (SK channels, subtype 2) (Homo sapiens, UniProt Q9H2S1)
T1 construct: expressed in transfected cells; host or cells: HEK293
Experiment: whole-cell patch-clamp of ionic current through SK2 channels in HEK293 cells (SC100)
Format: cell-based
Settings: concentration that increases the basal current by 100%; HEK293 cells expressing SK2 channels
Outline: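 Whole-cell patch-clamp recording of current in HEK293 cells expressing SK2 channels. SC100 is the compound concentration that increases basal current by 100%.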

Row | Structure (SMILES) | SC100
1 | Cc1cc(C)n(-c2nc(CN(C)C)cc(NC3CCC(F)(F)CC3)n2)n1 [Compound 177, N-(4,4-difluorocyclohexyl)-2-(3,5-dimethyl-1H-pyrazol-1-yl)-6-((dimethylamino)methyl)pyrimidin-4-amine] | + (+ means >1 uM)
2 | Cc1cc(C)n(-c2nc(CN3CCN(C)CC3)cc(NC3CCC(F)(F)CC3)n2)n1 [Compound 178, N-(4,4-difluorocyclohexyl)-2-(3,5-dimethyl-1H-pyrazol-1-yl)-6-((4-methylpiperazin-1-yl)methyl)pyrimidin-4-amine] | + (+ means >1 uM)
3 | Cc1ccn(-c2cc(Cl)cc(NC3CCC(F)(F)CC3)n2)n1 [Compound 179, 4-chloro-N-(4,4-difluorocyclohexyl)-6-(3-methyl-1H-pyrazol-1-yl)pyridin-2-amine] | ++ (++ means 200 nM-1000 nM)
4 | Cc1cc(NC2CCC(C(F)(F)F)CC2)nc(-n2ccc(C)n2)c1 (stereo not drawn) [Compound 180, 4-methyl-6-(3-methyl-1H-pyrazol-1-yl)-N-(4-(trifluoromethyl)cyclohexyl)pyridin-2-amine] | + (+ means >1 uM)
5 | Cc1cc(C)n(-c2cc(C(F)F)nc(NC3CCC(F)(F)C3)n2)n1 (stereo not drawn) [Compound 181, N-(3,3-difluorocyclopentyl)-4-(difluoromethyl)-6-(3,5-dimethyl-1H-pyrazol-1-yl)pyrimidin-2-amine] | + (+ means >1 uM)
6 | Cc1cc(C)n(-c2nc(NC3CCC(F)(F)C3)cc(C(N)=O)n2)n1 (stereo not drawn) [Compound 183, 6-((3,3-difluorocyclopentyl)amino)-2-(3,5-dimethyl-1H-pyrazol-1-yl)pyrimidine-4-carboxamide] | + (+ means >1 uM)
7 | Cc1cc(C)n(-c2nc(C#N)cc(NC3CCC(F)(F)C3)n2)n1 (stereo not drawn) [Compound 184, 6-((3,3-difluorocyclopentyl)amino)-2-(3,5-dimethyl-1H-pyrazol-1-yl)pyrimidine-4-carbonitrile] | + (+ means >1 uM)
8 | Cc1cc(C)n(-c2cc(CO)cc(NC3CCC(F)(F)CC3)n2)n1 [Compound 185, (2-((4,4-difluorocyclohexyl)amino)-6-(3,5-dimethyl-1H-pyrazol-1-yl)pyridin-4-yl)methanol] | ++ (++ means 200 nM-1000 nM)
9 | Cc1cc(C)n(-c2nc(NC3CCC(F)(F)CC3)cc(C3CC3)n2)n1 [Compound 186, 6-cyclopropyl-N-(4,4-difluorocyclohexyl)-2-(3,5-dimethyl-1H-pyrazol-1-yl)pyrimidin-4-amine] | ++ (++ means 200 nM-1000 nM)
10 | Cc1cc(C)n(-c2nc(NC3CCC(F)(F)CC3)cc(N3CCOCC3)n2)n1 [Compound 187, N-(4,4-difluorocyclohexyl)-2-(3,5-dimethyl-1H-pyrazol-1-yl)-6-morpholinopyrimidin-4-amine] | ++ (++ means 200 nM-1000 nM)
11 | Cc1cc(C)n(-c2nc(NC3CCC(F)(F)CC3)cc(N3CCOC(C)C3)n2)n1 (stereo not drawn) [Compound 188, N-(4,4-difluorocyclohexyl)-2-(3,5-dimethyl-1H-pyrazol-1-yl)-6-(2-methylmorpholino)pyrimidin-4-amine] | ++ (++ means 200 nM-1000 nM)
12 | Cc1cc(C)n(-c2nc(NC3CCC(F)(F)CC3)cc(OCc3cnnn3C)n2)n1 [Compound 189, N-(4,4-difluorocyclohexyl)-2-(3,5-dimethyl-1H-pyrazol-1-yl)-6-((1-methyl-1H-1,2,3-triazol-5-yl)methoxy)pyrimidin-4-amine] | +++ (+++ means <200 nM)
13 | Cc1cc(C)n(-c2nc(NC3CCC(F)(F)CC3)cc(N3CC(C)OC(C)C3)n2)n1 (stereo not drawn) [Compound 190, N-(4,4-difluorocyclohexyl)-2-(3,5-dimethyl-1H-pyrazol-1-yl)-6-(2,6-dimethylmorpholino)pyrimidin-4-amine] | ++ (++ means 200 nM-1000 nM)
14 | Cc1cc(C)n(-c2nc(NC3CCC(F)(F)CC3)cc(OCc3cnn(C)n3)n2)n1 [Compound 191, N-(4,4-difluorocyclohexyl)-2-(3,5-dimethyl-1H-pyrazol-1-yl)-6-((2-methyl-2H-1,2,3-triazol-4-yl)methoxy)pyrimidin-4-amine] | ++ (++ means 200 nM-1000 nM)
15 | Cc1cc(C)n(-c2nc(CO)cc(NC3CCC(F)(F)C3)n2)n1 (stereo not drawn) [Compound 192, (6-((3,3-difluorocyclopentyl)amino)-2-(3,5-dimethyl-1H-pyrazol-1-yl)pyrimidin-4-yl)methanol] | ++ (++ means 200 nM-1000 nM)
16 | COCc1cc(NC2CCC(F)(F)CC2)nc(-n2nc(C)cc2C)n1 [Compound 193] | + (+ means >1 uM)
17 | COCC1CN(c2cc(NC3CCC(F)(F)CC3)nc(-n3nc(C)cc3C)n2)CCO1 (stereo not drawn) [Compound 194, N-(4,4-difluorocyclohexyl)-2-(3,5-dimethyl-1H-pyrazol-1-yl)-6-(2-(methoxymethyl)morpholino)pyrimidin-4-amine] | ++ (++ means 200 nM-1000 nM)
18 | Cc1cc(C)n(-c2cc(CN)cc(NC3CCC(F)(F)CC3)n2)n1 [Compound 195, 4-(aminomethyl)-N-(4,4-difluorocyclohexyl)-6-(3,5-dimethyl-1H-pyrazol-1-yl)pyridin-2-amine] | ++ (++ means 200 nM-1000 nM)

Row | Structure (SMILES) | SC100
19 | Cc1cc(NC2CCC(F)(F)CC2)nc(-n2cc(F)cn2)n1 [Compound 196, N-(4,4-difluorocyclohexyl)-2-(4-fluoro-1H-pyrazol-1-yl)-6-methylpyrimidin-4-amine] | + (+ means >1 uM)
20 | CCc1ccn(-c2nc(C)cc(NC3CCC(F)(F)CC3)n2)n1 [Compound 197, N-(4,4-difluorocyclohexyl)-2-(3-ethyl-1H-pyrazol-1-yl)-6-methylpyrimidin-4-amine] | ++ (++ means 200 nM-1000 nM)
21 | Cc1cc(C)n(-c2nc(NC3CCC(F)(F)CC3)cc([C@H](C)O)n2)n1 [Compound 199, (+)1-(6-((4,4-difluorocyclohexyl)amino)-2-(3,5-dimethyl-1H-pyrazol-1-yl)pyrimidin-4-yl)ethan-1-ol] | ++ (++ means 200 nM-1000 nM)
22 | Cc1cc(NC2CCC(F)(F)CC2)nc(-n2ccc(C(F)(F)F)n2)n1 [Compound 200, N-(4,4-difluorocyclohexyl)-6-methyl-2-(3-(trifluoromethyl)-1H-pyrazol-1-yl)pyrimidin-4-amine] | ++ (++ means 200 nM-1000 nM)
23 | Cc1cc(NC2CCC(F)(F)CC2)nc(-n2nc(C)c(F)c2C)n1 [Compound 201, N-(4,4-difluorocyclohexyl)-2-(4-fluoro-3,5-dimethyl-1H-pyrazol-1-yl)-6-methylpyrimidin-4-amine] | ++ (++ means 200 nM-1000 nM)
24 | Cc1cc(NC2CCC(F)(F)CC2)nc(-n2ccc(C(C)O)n2)n1 (stereo not drawn) [Compound 202, 1-(1-(4-((4,4-difluorocyclohexyl)amino)-6-methylpyrimidin-2-yl)-1H-pyrazol-3-yl)ethan-1-ol] | + (+ means >1 uM)
25 | Cc1cc(NC2CCC(F)(F)CC2)nc(-n2ccc(C3CC3)n2)n1 [Compound 203, 2-(3-cyclopropyl-1H-pyrazol-1-yl)-N-(4,4-difluorocyclohexyl)-6-methylpyrimidin-4-amine] | ++ (++ means 200 nM-1000 nM)
26 | Cc1cc(NC2CCC(F)(F)CC2)nc(-n2ccc(CO)n2)n1 [Compound 204, (1-(4-((4,4-difluorocyclohexyl)amino)-6-methylpyrimidin-2-yl)-1H-pyrazol-3-yl)methanol] | + (+ means >1 uM)
27 | Cc1cc(C)n(-c2cc(C(C)(C)O)cc(NC3CCC(F)(F)CC3)n2)n1 [Compound 206, 2-(2-((4,4-difluorocyclohexyl)amino)-6-(3,5-dimethyl-1H-pyrazol-1-yl)pyridin-4-yl)propan-2-ol] | + (+ means >1 uM)
28 | Cc1cc(C)n(-c2cc(C(C)O)cc(NC3CCC(F)(F)CC3)n2)n1 (stereo not drawn) [Compound 207, 1-(2-((4,4-difluorocyclohexyl)amino)-6-(3,5-dimethyl-1H-pyrazol-1-yl)pyridin-4-yl)ethan-1-ol] | + (+ means >1 uM)
29 | Cc1cc(NC2CCC(F)(F)CC2)nc(-n2ccc(CC#N)n2)n1 [Compound 208, 2-(1-(4-((4,4-difluorocyclohexyl)amino)-6-methylpyrimidin-2-yl)-1H-pyrazol-3-yl)acetonitrile] | ++ (++ means 200 nM-1000 nM)
30 | Cc1cc(C)n(-c2nc(NC3CCC(F)(F)CC3)cc(OC(F)F)n2)n1 [Compound 209, N-(4,4-difluorocyclohexyl)-6-(difluoromethoxy)-2-(3,5-dimethyl-1H-pyrazol-1-yl)pyrimidin-4-amine] | + (+ means >1 uM)
31 | Cc1ccn(-c2nc(NC3CCC(F)(F)CC3)cc(OC3CN(C(=O)C(C)C)C3)n2)n1 [Compound 210, 1-(3-((6-((4,4-difluorocyclohexyl)amino)-2-(3-methyl-1H-pyrazol-1-yl)pyrimidin-4-yl)oxy)azetidin-1-yl)-2-methylpropan-1-one] | ++ (++ means 200 nM-1000 nM)
32 | Cc1ccn(-c2nc(NC3CCC(F)(F)CC3)cc(OC3CN(C(=O)C(C)(C)C)C3)n2)n1 [Compound 211, 1-(3-((6-((4,4-difluorocyclohexyl)amino)-2-(3-methyl-1H-pyrazol-1-yl)pyrimidin-4-yl)oxy)azetidin-1-yl)-2,2-dimethylpropan-1-one] | +++ (+++ means <200 nM)
33 | Cc1cc(NC2CCC(F)(F)CC2)nc(-n2ccc(C#N)n2)n1 [Compound 212, 1-(4-((4,4-difluorocyclohexyl)amino)-6-methylpyrimidin-2-yl)-1H-pyrazole-3-carbonitrile] | + (+ means >1 uM)
34 | Cc1cc(C)n(-c2nc(NC3CCC(F)(F)C3)cc(C(C)(C)O)n2)n1 (stereo not drawn) [Compound 214, 2-(6-((3,3-difluorocyclopentyl)amino)-2-(3,5-dimethyl-1H-pyrazol-1-yl)pyrimidin-4-yl)propan-2-ol] | + (+ means >1 uM)
35 | Cc1cc(NC2CCC(F)(F)CC2)nc(-n2ccc(C(C)(C)O)n2)n1 [Compound 215, 2-(1-(4-((4,4-difluorocyclohexyl)amino)-6-methylpyrimidin-2-yl)-1H-pyrazol-3-yl)propan-2-ol] | + (+ means >1 uM)
36 | Cc1cc(NC2CCC(F)(F)CC2)nc(-n2ccc(C(F)F)n2)n1 [Compound 216] | ++ (++ means 200 nM-1000 nM)
